Assay results from PubChem BioAssay (NCI).
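Compound exposure: 48 hours, 5 concentrations, 96-well plates. GI50: concentration for 50% inhibition of growth. Definition used: TGI = concentration required for complete inhibition of growth.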

Columns and labels:
Experiment in all cases: inhibition of tumour cell growth, NCI panel, 48 h
HCT-15 colon = system: HCT-15 colon
HCC-2998 colon = system: HCC-2998 colon
K-562 leukemia = system: K-562 leukemia
OVCAR-4 ovarian = system: OVCAR-4 ovarian
SK-OV-3 ovarian = system: SK-OV-3 ovarian
SF-539 CNS = system: SF-539 CNS
786-0 renal = system: 786-0 renal
RPMI-8226 leukemia = system: RPMI-8226 leukemia
NCI-H23 lung = system: NCI-H23 lung
SK-MEL-28 melanoma = system: SK-MEL-28 melanoma
UO-31 renal = system: UO-31 renal
SR leukemia = system: SR leukemia
NCI-H460 lung = system: NCI-H460 lung
MALME-3M melanoma = system: MALME-3M melanoma
T-47D breast = system: T-47D breast
NCI/ADR-RES ovarian = system: NCI/ADR-RES ovarian
HT29 colon = system: HT29 colon
HL-60(TB) leukemia = system: HL-60(TB) leukemia
TK-10 renal = system: TK-10 renal
MCF7 breast = system: MCF7 breast
MDA-MB-435 = system: MDA-MB-435
UACC-257 melanoma = system: UACC-257 melanoma
A549 NSCLC = system: A549 NSCLC
SNB-19 CNS = system: SNB-19 CNS
UACC-62 melanoma = system: UACC-62 melanoma
OVCAR-8 ovarian = system: OVCAR-8 ovarian
BT-549 breast = system: BT-549 breast
SF-268 CNS = system: SF-268 CNS
CAKI-1 renal = system: CAKI-1 renal
HOP-62 NSCLC = system: HOP-62 NSCLC
M14 melanoma = system: M14 melanoma
CCRF-CEM leukemia = system: CCRF-CEM leukemia
SW-620 colon = system: SW-620 colon
OVCAR-5 ovarian = system: OVCAR-5 ovarian
SK-MEL-2 melanoma = system: SK-MEL-2 melanoma
NCI-H522 lung = system: NCI-H522 lung
SF-295 CNS = system: SF-295 CNS
SN12C renal = system: SN12C renal
ACHN renal = system: ACHN renal
MOLT-4 leukemia = system: MOLT-4 leukemia
SK-MEL-5 melanoma = system: SK-MEL-5 melanoma
PC-3 prostate = system: PC-3 prostate
KM12 colon = system: KM12 colon
IGROV1 ovarian = system: IGROV1 ovarian
MDA-MB-231 breast = system: MDA-MB-231 breast
U251 CNS = system: U251 CNS
COLO 205 colon = system: COLO 205 colon
NCI-H226 lung = system: NCI-H226 lung
HS 578T breast = system: HS 578T breast
A498 renal = system: A498 renal
LOX IMVI melanoma = system: LOX IMVI melanoma
OVCAR-3 ovarian = system: OVCAR-3 ovarian
HCT-116 colon = system: HCT-116 colon
HOP-92 NSCLC = system: HOP-92 NSCLC
SNB-75 CNS = system: SNB-75 CNS
DU-145 prostate = system: DU-145 prostate
RXF 393 renal = system: RXF 393 renal

**Q.** How did the GI50 (HCT-15 colon) turn out when `CN(CCO)C1CCN(c2ccc(Nc3ncc4c5ccnc(F)c5n(C5CCCC5)c4n3)nc2)CC1` was run?
**A.** 3.01 µM

**Q.** And the TGI (HCT-15 colon)?
**A.** 7.79 µM

**Q.** And the GI50 (HCC-2998 colon)?
**A.** 11.1 µM

**Q.** And the TGI (HCC-2998 colon)?
**A.** 25.4 µM

**Q.** And the GI50 (K-562 leukemia)?
**A.** 1320 nM

**Q.** What about the TGI (K-562 leukemia) of the same compound?
**A.** 4.08 µM

**Q.** And the GI50 (OVCAR-4 ovarian)?
**A.** 11.2 µM

**Q.** What about the TGI (OVCAR-4 ovarian) of the same compound?
**A.** 27.7 µM

**Q.** And the GI50 (SK-OV-3 ovarian)?
**A.** 11.1 µM

**Q.** And the TGI (SK-OV-3 ovarian)?
**A.** 26 µM

**Q.** And the GI50 (SF-539 CNS)?
**A.** 4.6 µM

**Q.** What about the TGI (SF-539 CNS) of the same compound?
**A.** 10.5 µM

**Q.** And the GI50 (786-0 renal)?
**A.** 5.12 µM

**Q.** What about the TGI (786-0 renal) of the same compound?
**A.** 26.9 µM

**Q.** What about the GI50 (RPMI-8226 leukemia) of the same compound?
**A.** 184 nM

**Q.** And the TGI (RPMI-8226 leukemia)?
**A.** 19.8 µM

**Q.** What about the GI50 (NCI-H23 lung) of the same compound?
**A.** 7.76 µM

**Q.** What about the TGI (NCI-H23 lung) of the same compound?
**A.** 32.3 µM

**Q.** What about the GI50 (SK-MEL-28 melanoma) of the same compound?
**A.** 12.3 µM

**Q.** What about the TGI (SK-MEL-28 melanoma) of the same compound?
**A.** 28.9 µM

**Q.** What about the GI50 (UO-31 renal) of the same compound?
**A.** 1860 nM

**Q.** What about the TGI (UO-31 renal) of the same compound?
**A.** 20.9 µM

**Q.** And the GI50 (SR leukemia)?
**A.** 1230 nM

**Q.** And the TGI (SR leukemia)?
**A.** 4.61 µM

**Q.** And the GI50 (NCI-H460 lung)?
**A.** 990 nM

**Q.** And the TGI (NCI-H460 lung)?
**A.** 2440 nM

**Q.** What about the GI50 (MALME-3M melanoma) of the same compound?
**A.** 12.7 µM

**Q.** What about the TGI (MALME-3M melanoma) of the same compound?
**A.** 34.5 µM

**Q.** What about the GI50 (T-47D breast) of the same compound?
**A.** 17.5 µM

**Q.** And the TGI (T-47D breast)?
**A.** 69.1 µM

**Q.** And the GI50 (NCI/ADR-RES ovarian)?
**A.** 15.3 µM

**Q.** And the TGI (NCI/ADR-RES ovarian)?
**A.** 36 µM

**Q.** What about the GI50 (HT29 colon) of the same compound?
**A.** 1230 nM

**Q.** What about the TGI (HT29 colon) of the same compound?
**A.** 4.45 µM

**Q.** What about the GI50 (HL-60(TB) leukemia) of the same compound?
**A.** 103 nM

**Q.** And the TGI (HL-60(TB) leukemia)?
**A.** 8.05 µM

**Q.** And the GI50 (TK-10 renal)?
**A.** 1590 nM

**Q.** What about the TGI (TK-10 renal) of the same compound?
**A.** 21.2 µM

**Q.** What about the GI50 (MCF7 breast) of the same compound?
**A.** 106 nM

**Q.** And the TGI (MCF7 breast)?
**A.** 3.05 µM

**Q.** What about the GI50 (MDA-MB-435) of the same compound?
**A.** 5.84 µM

**Q.** What about the TGI (MDA-MB-435) of the same compound?
**A.** 20.7 µM

**Q.** What about the GI50 (UACC-257 melanoma) of the same compound?
**A.** 17.6 µM

**Q.** And the TGI (UACC-257 melanoma)?
**A.** 40 µM

**Q.** What about the GI50 (A549 NSCLC) of the same compound?
**A.** 2270 nM

**Q.** And the TGI (A549 NSCLC)?
**A.** 7.9 µM

**Q.** And the GI50 (SNB-19 CNS)?
**A.** 2470 nM

**Q.** What about the TGI (SNB-19 CNS) of the same compound?
**A.** 33.8 µM

**Q.** And the GI50 (UACC-62 melanoma)?
**A.** 16.7 µM

**Q.** And the TGI (UACC-62 melanoma)?
**A.** 46 µM

**Q.** What about the GI50 (OVCAR-8 ovarian) of the same compound?
**A.** 14.7 µM

**Q.** What about the TGI (OVCAR-8 ovarian) of the same compound?
**A.** 43.4 µM

**Q.** What about the GI50 (BT-549 breast) of the same compound?
**A.** 13.1 µM

**Q.** What about the TGI (BT-549 breast) of the same compound?
**A.** 31.4 µM

**Q.** And the GI50 (SF-268 CNS)?
**A.** 12.5 µM

**Q.** What about the TGI (SF-268 CNS) of the same compound?
**A.** 30.9 µM

**Q.** And the GI50 (CAKI-1 renal)?
**A.** 4.44 µM

**Q.** And the TGI (CAKI-1 renal)?
**A.** 21.3 µM

**Q.** And the GI50 (HOP-62 NSCLC)?
**A.** 4.7 µM

**Q.** What about the TGI (HOP-62 NSCLC) of the same compound?
**A.** 25.4 µM

**Q.** And the GI50 (M14 melanoma)?
**A.** 11.7 µM

**Q.** And the TGI (M14 melanoma)?
**A.** 32.8 µM

**Q.** What about the GI50 (CCRF-CEM leukemia) of the same compound?
**A.** 208 nM

**Q.** What about the TGI (CCRF-CEM leukemia) of the same compound?
**A.** 3.59 µM

**Q.** And the GI50 (SW-620 colon)?
**A.** 184 nM

**Q.** What about the TGI (SW-620 colon) of the same compound?
**A.** 2210 nM

**Q.** What about the GI50 (OVCAR-5 ovarian) of the same compound?
**A.** 812 nM

**Q.** And the TGI (OVCAR-5 ovarian)?
**A.** 20.7 µM

**Q.** What about the GI50 (SK-MEL-2 melanoma) of the same compound?
**A.** 20.4 µM

**Q.** And the TGI (SK-MEL-2 melanoma)?
**A.** 45.6 µM

**Q.** What about the GI50 (NCI-H522 lung) of the same compound?
**A.** 17.2 µM

**Q.** And the TGI (NCI-H522 lung)?
**A.** 36.2 µM

**Q.** What about the GI50 (SF-295 CNS) of the same compound?
**A.** 2220 nM

**Q.** What about the TGI (SF-295 CNS) of the same compound?
**A.** 20.2 µM

**Q.** And the GI50 (SN12C renal)?
**A.** 12.2 µM

**Q.** What about the TGI (SN12C renal) of the same compound?
**A.** 31.5 µM

**Q.** And the GI50 (ACHN renal)?
**A.** 1980 nM

**Q.** What about the TGI (ACHN renal) of the same compound?
**A.** 20.6 µM

**Q.** And the GI50 (MOLT-4 leukemia)?
**A.** 51.3 nM

**Q.** What about the TGI (MOLT-4 leukemia) of the same compound?
**A.** 9.74 µM

**Q.** What about the GI50 (SK-MEL-5 melanoma) of the same compound?
**A.** 10.9 µM

**Q.** And the TGI (SK-MEL-5 melanoma)?
**A.** 25.9 µM

**Q.** And the GI50 (PC-3 prostate)?
**A.** 8.47 µM

**Q.** And the TGI (PC-3 prostate)?
**A.** 25.8 µM

**Q.** What about the GI50 (KM12 colon) of the same compound?
**A.** 51.4 nM

**Q.** What about the TGI (KM12 colon) of the same compound?
**A.** 1730 nM

**Q.** And the GI50 (IGROV1 ovarian)?
**A.** 11.7 µM

**Q.** And the TGI (IGROV1 ovarian)?
**A.** 30.8 µM

**Q.** What about the GI50 (MDA-MB-231 breast) of the same compound?
**A.** 6.01 µM

**Q.** What about the TGI (MDA-MB-231 breast) of the same compound?
**A.** 24.2 µM

**Q.** And the GI50 (U251 CNS)?
**A.** 2740 nM

**Q.** What about the TGI (U251 CNS) of the same compound?
**A.** 7.5 µM

**Q.** And the GI50 (COLO 205 colon)?
**A.** 81.7 nM

**Q.** What about the TGI (COLO 205 colon) of the same compound?
**A.** 18.5 µM

**Q.** And the GI50 (NCI-H226 lung)?
**A.** 16.3 µM

**Q.** And the TGI (NCI-H226 lung)?
**A.** 55 µM

**Q.** What about the GI50 (HS 578T breast) of the same compound?
**A.** 6.01 µM

**Q.** And the TGI (HS 578T breast)?
**A.** 34.3 µM

**Q.** And the GI50 (A498 renal)?
**A.** 366 nM

**Q.** And the TGI (A498 renal)?
**A.** 14.6 µM

**Q.** And the GI50 (LOX IMVI melanoma)?
**A.** 1020 nM

**Q.** And the TGI (LOX IMVI melanoma)?
**A.** 2240 nM

**Q.** And the GI50 (OVCAR-3 ovarian)?
**A.** 14.9 µM

**Q.** What about the TGI (OVCAR-3 ovarian) of the same compound?
**A.** 30.4 µM

**Q.** And the GI50 (HCT-116 colon)?
**A.** 1850 nM

**Q.** What about the TGI (HCT-116 colon) of the same compound?
**A.** 7.36 µM

**Q.** What about the GI50 (HOP-92 NSCLC) of the same compound?
**A.** 11.6 µM

**Q.** What about the TGI (HOP-92 NSCLC) of the same compound?
**A.** 28.8 µM

**Q.** And the GI50 (SNB-75 CNS)?
**A.** 5.67 µM

**Q.** And the TGI (SNB-75 CNS)?
**A.** 20.7 µM

**Q.** What about the GI50 (DU-145 prostate) of the same compound?
**A.** 1760 nM

**Q.** And the TGI (DU-145 prostate)?
**A.** 3.18 µM

**Q.** And the GI50 (RXF 393 renal)?
**A.** 1730 nM

**Q.** What about the TGI (RXF 393 renal) of the same compound?
**A.** 16.8 µM
